From patent publication US20030215462A1, “Use of UGT inhibitors to increase bioavailability” (priority 2001, published 2003)
“And” between values parts separate entries of the source, which are not always exact repeats. Identical values can stand only once.

Tests used:
[1] = test system: T1, UGT enzymes of human liver microsomes; test: Kinetic and Ki studies of inhibitors of 7-HFC glucuronidation in human liver microsomes; assay type: biochemical; conditions: 7-HFC 20-500 μM
T1 construct: percentage of control metabolism, 7-HFC glucuronidation; percentage of control metabolism, 7-HFC glucuronidation

[2] = test system: UGT enzymes of human liver microsomes; test: Inhibition of raloxifene glucuronidation (G1, G2) in human liver microsomes; assay type: biochemical; conditions: for % of control metabolism (SD, n = 3), raloxifene glucuronide G1 / % of control metabolism (SD, n = 3), raloxifene glucuronide G2: human liver microsomes 250 μg/ml, 15 min
Source text: Compounds were eluted using a binary solvent gradient system. […] Solvent B was methanol. […] Detection was at 280 nm.

[3] = molecular target: T2, UGT enzymes of human liver microsomes (Homo sapiens, UniProt P16662); test: Inhibition of zidovudine glucuronidation in human liver microsomes; assay type: biochemical; conditions: liver lot 062101
T2 construct: residual metabolism (percentage of control), zidovudine glucuronidation; other: liver lot 062101; residual metabolism (percentage of control), zidovudine glucuronidation; residual metabolism (percentage of control)
T2 sequence (P16662 1-529): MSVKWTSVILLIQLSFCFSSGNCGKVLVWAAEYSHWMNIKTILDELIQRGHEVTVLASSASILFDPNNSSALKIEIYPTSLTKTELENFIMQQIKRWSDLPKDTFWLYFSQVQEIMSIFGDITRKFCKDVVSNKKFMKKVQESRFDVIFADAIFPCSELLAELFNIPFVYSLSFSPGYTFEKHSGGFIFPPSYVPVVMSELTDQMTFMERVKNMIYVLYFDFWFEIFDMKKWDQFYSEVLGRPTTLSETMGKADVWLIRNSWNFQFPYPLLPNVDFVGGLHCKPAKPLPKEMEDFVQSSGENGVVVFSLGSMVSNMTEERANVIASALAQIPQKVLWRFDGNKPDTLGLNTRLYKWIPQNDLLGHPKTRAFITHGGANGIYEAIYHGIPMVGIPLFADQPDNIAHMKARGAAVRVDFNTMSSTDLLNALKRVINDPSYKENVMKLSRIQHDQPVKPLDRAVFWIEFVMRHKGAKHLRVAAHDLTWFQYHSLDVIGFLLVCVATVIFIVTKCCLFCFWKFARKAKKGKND
Method: Compounds were eluted using a binary solvent gradient system where solvent A was dilute phosphoric acid (pH 3) and solvent B was acetonitrile.
Standardized incubations utilized 500 μM zidovudine substrate, 1 mg/ml microsomal protein, 5 mM UDPGA and a 30 min incubation time. […] Int.

[4] = test system: T3, UGT enzymes of human liver microsomes; test: Inhibition of labetalol glucuronidation (LG1, LG2) in human liver microsomes; assay type: biochemical; conditions: labetalol 50 μM; inhibitor 50 μM
T3 construct: residual metabolism (percentage of control), labetalol LG1; other: labetalol 50 μM; residual metabolism (percentage of control), labetalol LG1; residual metabolism (percentage of control), labetalol LG2; inhi

[5] = test system: UGT enzymes of pooled human jejunum microsomes; test: Inhibition of 2ME2 glucuronidation (MG1) in pooled human jejunum microsomes; assay type: biochemical; conditions: jejunum HJ61, 2ME2 50 μM
Source text: Compounds were eluted using a binary solvent gradient system where solvent A was dilute phosphoric acid (pH 3) and solvent B was 80:20 acetonitrile-methanol. […] Detection was at 280 nm.

UGT1A9 = molecular target: T4, UGT1A9 (Homo sapiens, UniProt O60656); test: Inhibition of raloxifene glucuronidation by recombinant UGT1A9 Supersomes; conditions: for activity at 15 min, 25 µM / activity at 15 min, 50 µM: human, Supersomes with recombinant human UGT1A9, pH 7.5, probe raloxifene 50 μM; for Inhibition of raloxifene glucuronidation, UGT1A9, second line per inhibitor (G2): second line (G2, metabolite not given), raloxifene 50 μM, 250 μg/ml Supersomes, 1 mM UDPGA, 15 min
T4 sequence (O60656 26-530): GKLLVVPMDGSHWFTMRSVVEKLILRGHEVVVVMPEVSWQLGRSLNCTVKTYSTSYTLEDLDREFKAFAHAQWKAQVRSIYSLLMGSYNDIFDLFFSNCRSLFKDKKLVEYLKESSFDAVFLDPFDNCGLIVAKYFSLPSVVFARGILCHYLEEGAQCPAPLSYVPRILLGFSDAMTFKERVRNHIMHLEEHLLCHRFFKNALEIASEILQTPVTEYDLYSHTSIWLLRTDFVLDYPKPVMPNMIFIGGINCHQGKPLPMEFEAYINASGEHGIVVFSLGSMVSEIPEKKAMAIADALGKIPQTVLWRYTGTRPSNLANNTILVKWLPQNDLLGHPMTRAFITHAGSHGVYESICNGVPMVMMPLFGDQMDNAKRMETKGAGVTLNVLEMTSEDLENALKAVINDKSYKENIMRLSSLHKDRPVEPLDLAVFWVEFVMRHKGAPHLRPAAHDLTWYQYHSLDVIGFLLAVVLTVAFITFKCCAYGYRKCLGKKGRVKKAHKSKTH

[6] = inhibitor 10 μM, raloxifene 50 μM
[7] = inhibitor 25 μM, raloxifene 50 μM
[8] = inhibitor 50 μM, raloxifene 50 μM
[9] = inhibitor 100 μM, raloxifene 50 μM
[10] = inhibitor 500 μM, raloxifene 50 μM
[11] = liver lot 032101, inhibitor 50 μM
[12] = liver lot 062101, inhibitor 50 μM
[13] = liver lot 083000, inhibitor 50 μM
[14] = raloxifene 50 μM, inhibitor 10 μM
[15] = raloxifene 50 μM, inhibitor 25 μM
[16] = raloxifene 50 μM, inhibitor 50 μM
[17] = raloxifene 50 μM, inhibitor 100 μM

What does the source list for `O=C(O[C@@H]1Cc2c(O)cc(O)cc2O[C@H]1c1cc(O)c(O)c(O)c1)c1cc(O)c(O)c(O)c1` [Gallocatechin gallate]?
Vmax of 7-HFC glucuronidation (fit of the experiment with this inhibitor) [1]: 54 ± 3 nmol/min/mg; Km ([1]; read-out: Km of 7-HFC glucuronidation (fit of the experiment with this inhibitor)): 75 ± 7 µM; % of control metabolism (SD, n = 3), raloxifene glucuronide G1 [2, 6]: 80 (6) %; % of control metabolism (SD, n = 3), raloxifene glucuronide G1 [2, 7]: 62 (7) %; % of control metabolism (SD, n = 3), raloxifene glucuronide G1 [2, 8]: 45 (2) %; % of control metabolism (SD, n = 3), raloxifene glucuronide G1 [2, 9]: 20 (1) %; % of control metabolism (SD, n = 3), raloxifene glucuronide G1 [2, 10]: 0 (0) %; % of control metabolism (SD, n = 3), raloxifene glucuronide G2 [2, 6]: 83 (4) %; % of control metabolism (SD, n = 3), raloxifene glucuronide G2 [2, 7]: 64 (4) %; % of control metabolism (SD, n = 3), raloxifene glucuronide G2 [2, 8]: 47 (2) %; % of control metabolism (SD, n = 3), raloxifene glucuronide G2 [2, 9]: 29 (1) %; % of control metabolism (SD, n = 3), raloxifene glucuronide G2 [2, 10]: 0 (0) %; % of control metabolism, raloxifene G1 [2, 11]: 29 (1) %; % of control metabolism, raloxifene G2 [2, 11]: 28 (0) %; % of control metabolism, raloxifene G1 [2, 12]: 40 (3) %; % of control metabolism, raloxifene G2 [2, 12]: 22 (1) %; % of control metabolism, raloxifene G1 [2, 13]: 45 (2) %; % of control metabolism, raloxifene G2 [2, 13]: 47 (2) %; % of control metabolism, raloxifene G1 [2, 14]: 80 (6) %; % of control metabolism, raloxifene G2 [2, 14]: 83 (4) %; % of control metabolism, raloxifene G1 [2, 15]: 62 (7) %; % of control metabolism, raloxifene G2 [2, 15]: 64 (4) %; % of control metabolism, raloxifene G1 [2, 16]: 45 (2) %; % of control metabolism, raloxifene G2 [2, 16]: 47 (2) %; % of control metabolism, raloxifene G1 [2, 17]: 20 (1) %; % of control metabolism, raloxifene G2 [2, 17]: 29 (1) %; residual metabolism (percentage of control), zidovudine glucuronidation ([3]; inhibitor 50 μM): 66 (3) %; residual metabolism (percentage of control), zidovudine glucuronidation ([3]; inhibitor 100 μM): 56 (1) % and 59 (3) %; residual metabolism (percentage of control), zidovudine glucuronidation ([3]; inhibitor 200 μM): 49 (1) % and 40 (2) %; residual metabolism (percentage of control), labetalol LG1 [4]: 60 (5) %; residual metabolism (percentage of control), labetalol LG2 [4]: 55 (8) %; residual metabolism (% of control), 2ME2 MG1 ([5]; inhibitor 10 μM): 69 (3) %; residual metabolism (% of control), 2ME2 MG1 ([5]; inhibitor 25 μM): 51 (2) %; residual metabolism (% of control), 2ME2 MG1 ([5]; inhibitor 50 μM): 31 (1) %; residual metabolism (% of control), 2ME2 MG1 ([5]; inhibitor 100 μM): 9 (1) %; activity at 15 min, 25 µM (UGT1A9; formation of glucuronide G1, % of control metabolism, raloxifene G1, UGT1A9, inhibitor 25 μM): 72%; activity at 15 min, 50 µM (UGT1A9; formation of glucuronide G1, % of control metabolism, raloxifene G1, UGT1A9, inhibitor 50 μM): 47%; activity at 15 min, 25 µM (UGT1A9; formation of glucuronide G2, % of control metabolism, raloxifene G2, UGT1A9, inhibitor 25 μM): 63%; activity at 15 min, 50 µM (UGT1A9; formation of glucuronide G2, % of control metabolism, raloxifene G2, UGT1A9, inhibitor 50 μM): 44%; Inhibition of raloxifene glucuronidation, UGT1A9, second line per inhibitor (G2) (UGT1A9; inhibitor 25 μM): 63 (4); Inhibition of raloxifene glucuronidation, UGT1A9, second line per inhibitor (G2) (UGT1A9; inhibitor 50 μM): 44 (2)
